Where two headings read alike, the source gives them in different places. In the oligonucleotide strings, read from the 5' end, every base follows the letter of its sugar. An asterisk marks phosphorothioate; unmarked linkages are phosphodiester. Other units and linkages are bracketed, terminal groups are in braces. A string of capitals states the bases alone. e = 2'-O-(2-methoxyethyl) (MOE); [5mC] = 5-methylcytosine; d = 2'-deoxy (DNA)
Key:
human Factor 7 mRNA = test: Dose-dependent antisense inhibition of human Factor 7 in HepB3 cells, transfection with lipofectin; assay type: cell-based; details: for percent inhibition of Factor 7 mRNA, relative to untreated control cells: lipofectin, HepB3 cells, 16 hours; for percent inhibition of Factor 7 mRNA, 3.125 nM / percent inhibition of Factor 7 mRNA, 6.25 nM / percent inhibition of Factor 7 mRNA, 12.5 nM / percent inhibition of Factor 7 mRNA, 25.0 nM / percent inhibition of Factor 7 mRNA, 50.0 nM / percent inhibition of Factor 7 mRNA, 100.0 nM: HepB3, lipofectin, ~16 h
Outline: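 HepB3 cells (4,000/well) lipofectin-transfected with antisense oligonucleotide at 3.125 or 6.25 up to 100 nM for ~16 h. Factor 7 mRNA measured by real-time RT-PCR with primer probe set RTS 2927, adjusted to RIBOGREEN total RNA; expressed as percent inhibition versus untreated control cells.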

BALB/c mice = details: mouse, in vivo
platelet factor-4 (PF-4) = test: FeCl3 induced venous thrombosis (VT) model, real-time RT-PCR quantification of PF-4 in vena cava as measure of thrombus formation; assay type: in vivo, mouse; details: for PF-4 (percent of PF-4 mRNA as compared to the PBS + FeCl3 control) / PF-4 (percentage compared to PBS controls): BALB/c mice; for PF-4 (percent of PF-4 mRNA as compared to the PBS + FeCl3 control): no Plavix; for PF-4 (percentage compared to PBS controls): vena cava
Experimental: Two control groups of BALB/c mice were treated with PBS, administered subcutaneously twice a week for 3 weeks. Thrombus formation was induced with FeCl3 in half of the mice while the rest of the mice were assayed for tail bleeding. […] Thrombus formation was induced with FeCl3 in all groups of the VT mice except the first control group.
(§1) In mice undergoing FeCl3 treatment, thrombus formation was induced by applying a piece of filter paper (2×4 min) pre-saturated with 10% FeCl3 solution directly on the vena cava. After 3 minutes of exposure, the filter paper was removed. Thirty minutes after the filter paper application, a fixed length of the vein containing the thrombus was dissected out for platelet analysis. Liver was collected for RNA analysis.
(§2) Real-time RT-PCR quantification of platelet factor-4 (PF-4) was used to quantify platelets in the vena cava as a measure of thrombus formation.
Six additional groups of BALB/c mice was treated with 0.5 mg/kg, 1 mg/kg, 2 mg·kg, 3 mg/kg, 4 mg/kg, or 5 mg/kg of warfarin, administered intraperioneally daily for 6 days. Four hours after the last dose of warfarin, mice were sacrificed. A control group of BALB/c mice were treated with PBS, administered subcutaneously twice a week for 3 weeks. Two days after the last dose of PBS, mice were anesthetized with 150 mg/kg ketamine mixed with 10 mg/kg xylazine administered by intraperitoneal injection. Thrombus formation was induced with FeCl3 in groups of mice except the first control group.
as §1, with “mm)” for “min)”
as §2
Thrombus formation was induced with FeCl3 in all of the mice except the first […] control groups. All mice were anesthetized with 150 mg/kg of ketamine mixed with 10 mg/kg of xylazine administered by intraperitoneal injection.
After 3 minutes of exposure, the filter paper was removed. Thirty minutes after the filter paper application, a fixed length of the vein containing the thrombus was dissected out for platelet analysis.
Real-time PCR quantification of PF-4 was used to quantify platelets in the vena cava as a measure of thrombus formation. […] Data is presented as percent of PF-4 mRNA as compared to the PBS+ FeCl3 control, […]

In the case of “407939 (antisense eT*eG*e[5mC]*eA*eG*d[5mC]*d[5mC]*d[5mC]*dG*dG*d[5mC]*dA*d[5mC]*d[5mC]*d[5mC]*eA*eG*e[5mC]*eG*eA) [compound 407939]”, the “percent inhibition of Factor 7 mRNA, relative to untreated control cells” value (human Factor 7 mRNA; 3.125 nM) is reported as 17%, the “percent inhibition of Factor 7 mRNA, relative to untreated control cells” value (human Factor 7 mRNA; 12.5 nM) is reported as 57% and the “percent inhibition of Factor 7 mRNA, relative to untreated control cells” value (human Factor 7 mRNA; 25 nM) is reported as 75%. The “percent inhibition of Factor 7 mRNA, relative to untreated control cells” value (human Factor 7 mRNA; 50 nM) was 80%, the “percent inhibition of Factor 7 mRNA, relative to untreated control cells” value (human Factor 7 mRNA; 100 nM) was 83% and the “percent inhibition of Factor 7 mRNA, 3.125 nM” value (human Factor 7 mRNA; Example 2, 3.125 nM) was 62%. For the same substance, the “percent inhibition of Factor 7 mRNA, 6.25 nM” value (from here on “percent inhibition … 6.25 nM”) (human Factor 7 mRNA; Example 2) was 79%, the “percent inhibition of Factor 7 mRNA, 12.5 nM” value (“percent inhibition … 12.5 nM” below) (human Factor 7 mRNA; Example 2, 12.5 nM) was 83% and the “percent inhibition of Factor 7 mRNA, 25.0 nM” value (shortened to “percent inhibition … 25.0 nM”) (human Factor 7 mRNA; Example 2) was 91%. For the same substance, the “percent inhibition of Factor 7 mRNA, 50.0 nM” value (“percent inhibition … 50.0 nM” for short) (human Factor 7 mRNA; Example 2) was 92%, the “percent inhibition of Factor 7 mRNA, 100.0 nM” value (“percent inhibition … 100.0 nM” below) (human Factor 7 mRNA; Example 2) was 92% and the “percent inhibition … 6.25 nM” value (human Factor 7 mRNA; Example 5) was 37%. For the same substance, the “percent inhibition … 12.5 nM” value (human Factor 7 mRNA; Example 5, 12.5 nM) was 57%, the “percent inhibition … 25.0 nM” value (human Factor 7 mRNA; Example 5) was 77% and the “percent inhibition … 50.0 nM” value (human Factor 7 mRNA; Example 5) was 84%. For the same substance, the “percent inhibition … 100.0 nM” value (human Factor 7 mRNA; Example 5) was 87% and the “percent inhibition of Factor 7 mRNA, relative to untreated control cells” value (human Factor 7 mRNA) was 35%.
“407935 (antisense eA*eT*eG*e[5mC]*eA*dT*dG*dG*dT*dG*dA*dT*dG*d[5mC]*dT*eT*e[5mC]*eT*eG*eA) [compound 407935]” was tested, and the “percent inhibition of Factor 7 mRNA, relative to untreated control cells” value (human Factor 7 mRNA; 3.125 nM) was 19%, the “percent inhibition of Factor 7 mRNA, relative to untreated control cells” value (human Factor 7 mRNA; 12.5 nM) was 58% and the “percent inhibition of Factor 7 mRNA, relative to untreated control cells” value (human Factor 7 mRNA; 25 nM) was 70%. The “percent inhibition of Factor 7 mRNA, relative to untreated control cells” value (human Factor 7 mRNA; 50 nM) was 85%, the “percent inhibition of Factor 7 mRNA, relative to untreated control cells” value (human Factor 7 mRNA; 100 nM) was 87% and the “percent inhibition of Factor 7 mRNA, 3.125 nM” value (human Factor 7 mRNA; Example 2, 3.125 nM) was 57%. The “percent inhibition … 6.25 nM” value (human Factor 7 mRNA; Example 2) was 76%, the “percent inhibition … 12.5 nM” value (human Factor 7 mRNA; Example 2, 12.5 nM) was 78% and the “percent inhibition … 25.0 nM” value (human Factor 7 mRNA; Example 2) was 89%. For the same substance, the “percent inhibition … 50.0 nM” value (human Factor 7 mRNA; Example 2) was 90%, the “percent inhibition … 100.0 nM” value (human Factor 7 mRNA; Example 2) was 89% and the “percent inhibition … 6.25 nM” value (human Factor 7 mRNA; Example 5) was 38%. The “percent inhibition … 12.5 nM” value (human Factor 7 mRNA; Example 5, 12.5 nM) was 53%, the “percent inhibition … 25.0 nM” value (human Factor 7 mRNA; Example 5) was 70% and the “percent inhibition … 50.0 nM” value (human Factor 7 mRNA; Example 5) was 82%. The “percent inhibition … 100.0 nM” value (human Factor 7 mRNA; Example 5) was 86% and the “percent inhibition of Factor 7 mRNA, relative to untreated control cells” value (human Factor 7 mRNA) was 39%.
With “CCATAGAACAGCTTCACAGG (sugars from the 5' end e5 d10 e5, backbone and methylation of C not given here) [ISIS 403102]” the “amount of bleeding in comparison to PBS treated mice” value (BALB/c mice) was “slight decrease in the amount of bleeding”, the “bleeding as compared to PBS control mice” value (BALB/c mice) was “did not significantly affect bleeding” and the “Blood” value (BALB/c mice; sc, 25 mg/kg) was 0.06 g. For the same substance, the “Blood” value (BALB/c mice; sc, 37.5 mg/kg) was 0.06 g, the “Blood” value (BALB/c mice; sc, 40 mg/kg) was 0.10 g and the “bleeding compared to PBS treated mice” value (BALB/c mice; sc, 40 mg/kg) was “less bleeding than PBS treated mice”. The “Blood” value (BALB/c mice; sc, 50 mg/kg) was 0.10 g, the “amount of bleeding in comparison to PBS treated mice” value (BALB/c mice; sc, 50 mg/kg) was “Bleeding was the same” and the “PF-4 (percent of PF-4 mRNA as compared to the PBS + FeCl3 control)” value (platelet factor-4 (PF-4); with FeCl3, ISIS 403102 20 mg/kg s.c. twice a week for three weeks) was 39%. The “PF-4 (percent of PF-4 mRNA as compared to the PBS + FeCl3 control)” value (platelet factor-4 (PF-4); without FeCl3, ISIS 403102 20 mg/kg s.c. twice a week for three weeks) was 2%, the “PF-4 in comparison to the PBS control” value (platelet factor-4 (PF-4); Example 14, 25, 37.5 or 50 mg/kg sc twice a week for 3 weeks) was “reduction of PF-4” and the “PF-4 in comparison to the PBS control” value (platelet factor-4 (PF-4); Example 16, dosages of 5 mg/kg and higher, sc twice a week for 3 weeks) was “dose-dependent reduction of PF-4”. For the same substance, the “PF-4 (percentage compared to PBS controls)” value (platelet factor-4 (PF-4); FeCl3 (Example 16), 1 mg/kg s.c. twice a week for 3 weeks) was 120%, the “PF-4 (percentage compared to PBS controls)” value (platelet factor-4 (PF-4); FeCl3 (Example 16), 3 mg/kg s.c. twice a week for 3 weeks) was 112% and the “PF-4 (percentage compared to PBS controls)” value (platelet factor-4 (PF-4); FeCl3 (Example 16), 5 mg/kg s.c. twice a week for 3 weeks) was 69%. The “PF-4 (percentage compared to PBS controls)” value (platelet factor-4 (PF-4); FeCl3 (Example 16), 10 mg/kg s.c. twice a week for 3 weeks) was 22%, the “PF-4 (percentage compared to PBS controls)” value (platelet factor-4 (PF-4); FeCl3 (Example 16), 20 mg/kg s.c. twice a week for 3 weeks) was 41% and the “PF-4 (percentage compared to PBS controls)” value (platelet factor-4 (PF-4); FeCl3 (Example 16), 40 mg/kg s.c. twice a week for 3 weeks) was 38%. The “PF-4 (percentage compared to PBS controls)” value (platelet factor-4 (PF-4); FeCl3, 25 mg/kg s.c. twice a week for 3 weeks) was 34%, the “PF-4 (percentage compared to PBS controls)” value (platelet factor-4 (PF-4); FeCl3, 37.5 mg/kg s.c. twice a week for 3 weeks) was 24% and the “PF-4 (percentage compared to PBS controls)” value (platelet factor-4 (PF-4); FeCl3, 50 mg/kg s.c. twice a week for 3 weeks) was 24%.

— patent publication US20120214862A1, “MODULATION OF FACTOR 7 EXPRESSION” (ISIS Pharmaceuticals, Inc., priority 2009, published 2012)
